# Data published in ChEMBL document CHEMBL4033641, “Design, synthesis and anticancer potential of NSC-319745 hydroxamic acid derivatives as DNMT and HDAC inhibitors” (Eur J Med Chem, 2017).
# The source made the active and inactive calls. No cut-off for these calls is given here.
# How the values were obtained:
# K562 = test: Antiproliferative activity against human K562 cells after 72 hrs by MTT assay; format: functional, cell-based; details: K562, 72 h
# U-937 [1] = test: Induction of apoptosis in human U937 cells assessed as viable cells at 2.5 uM after 48 hrs by Annexin V-FITC/PI staining based flow cytometry (reference value: 99.4%); format: functional; details: U-937, 48 h, read-out: Activity
# [2] = molecular target: DNMT3A2/3L complex (Homo sapiens) (UniProt Q9Y6K1+Q9UJW3); test: Inhibition of DNMT3A/3L (unknown origin) at 100 uM using biotinylated DNA oligonucleotides as substrate preincubated for 15 mins followed by substrate/[3H]-SAM addition measured after 4 hrs by liquid scintillation counting analysis; format: protein-complex assay
# Chain of DNMT3A2/3L complex (Homo sapiens) (Q9UJW3 whole entry, looked up): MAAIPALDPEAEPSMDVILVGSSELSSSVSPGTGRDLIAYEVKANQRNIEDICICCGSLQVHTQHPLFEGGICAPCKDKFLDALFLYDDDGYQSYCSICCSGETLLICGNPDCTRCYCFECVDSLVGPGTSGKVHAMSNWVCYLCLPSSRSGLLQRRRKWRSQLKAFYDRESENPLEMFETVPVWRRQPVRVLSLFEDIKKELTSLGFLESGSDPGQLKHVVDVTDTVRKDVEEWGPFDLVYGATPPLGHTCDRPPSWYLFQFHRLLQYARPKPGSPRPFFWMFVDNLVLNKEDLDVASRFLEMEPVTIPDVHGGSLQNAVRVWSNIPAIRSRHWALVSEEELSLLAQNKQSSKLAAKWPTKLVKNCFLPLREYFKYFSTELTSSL
# Chain of DNMT3A2/3L complex (Homo sapiens) (Q9Y6K1 whole entry, looked up): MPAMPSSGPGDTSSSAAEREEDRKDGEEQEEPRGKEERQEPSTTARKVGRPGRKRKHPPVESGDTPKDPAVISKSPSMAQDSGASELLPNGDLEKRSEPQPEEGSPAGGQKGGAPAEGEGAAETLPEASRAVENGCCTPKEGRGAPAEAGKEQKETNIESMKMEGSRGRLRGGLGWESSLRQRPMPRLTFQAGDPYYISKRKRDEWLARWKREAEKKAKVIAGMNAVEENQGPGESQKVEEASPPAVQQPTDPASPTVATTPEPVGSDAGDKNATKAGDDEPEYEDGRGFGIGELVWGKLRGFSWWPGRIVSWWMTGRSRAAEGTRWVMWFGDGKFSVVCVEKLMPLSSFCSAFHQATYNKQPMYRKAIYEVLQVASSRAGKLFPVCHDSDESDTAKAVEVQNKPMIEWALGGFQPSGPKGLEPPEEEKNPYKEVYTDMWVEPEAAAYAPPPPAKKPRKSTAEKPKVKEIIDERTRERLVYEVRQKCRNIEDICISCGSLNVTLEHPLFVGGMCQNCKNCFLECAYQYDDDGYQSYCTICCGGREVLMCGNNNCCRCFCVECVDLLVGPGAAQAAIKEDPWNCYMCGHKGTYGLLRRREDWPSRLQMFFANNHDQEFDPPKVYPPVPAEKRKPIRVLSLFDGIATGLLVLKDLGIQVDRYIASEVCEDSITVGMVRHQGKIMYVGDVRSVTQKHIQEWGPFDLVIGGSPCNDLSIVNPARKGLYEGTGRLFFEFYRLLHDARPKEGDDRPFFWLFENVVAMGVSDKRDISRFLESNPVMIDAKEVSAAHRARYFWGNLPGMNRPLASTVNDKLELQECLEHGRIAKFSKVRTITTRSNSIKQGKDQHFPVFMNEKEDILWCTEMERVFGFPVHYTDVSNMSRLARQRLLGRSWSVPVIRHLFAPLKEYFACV
# U-937 [3] = test: Induction of apoptosis in human U937 cells assessed as viable cells at 5 uM after 48 hrs by Annexin V-FITC/PI staining based flow cytometry (reference value: 99.4%); format: functional; details: U-937, 48 h, read-out: Activity
# U-937 [4] = test: Induction of apoptosis in human U937 cells assessed as early apoptotic cells at 2.5 uM after 48 hrs by Annexin V-FITC/PI staining based flow cytometry (reference value: 0.162%); format: functional
# U-937 [5] = test: Induction of apoptosis in human U937 cells assessed as necrotic cells at 2.5 uM after 48 hrs by Annexin V-FITC/PI staining based flow cytometry (reference value: 0%); format: functional
# U-937 [6] = test: Antiproliferative activity against human U937 cells after 72 hrs by MTT assay; format: functional, cell-based; details: U-937, 72 h
# [7] = molecular target: DNA (cytosine-5)-methyltransferase 1 (Homo sapiens) (UniProt P26358); test: Inhibition of DNMT1 in human U937 cells assessed as increase in P16INK4A expression level at 1 to 5 uM after 36 hrs by Western blot analysis; format: cell-based
# Chain of DNA (cytosine-5)-methyltransferase 1 (Homo sapiens) (P26358 whole entry): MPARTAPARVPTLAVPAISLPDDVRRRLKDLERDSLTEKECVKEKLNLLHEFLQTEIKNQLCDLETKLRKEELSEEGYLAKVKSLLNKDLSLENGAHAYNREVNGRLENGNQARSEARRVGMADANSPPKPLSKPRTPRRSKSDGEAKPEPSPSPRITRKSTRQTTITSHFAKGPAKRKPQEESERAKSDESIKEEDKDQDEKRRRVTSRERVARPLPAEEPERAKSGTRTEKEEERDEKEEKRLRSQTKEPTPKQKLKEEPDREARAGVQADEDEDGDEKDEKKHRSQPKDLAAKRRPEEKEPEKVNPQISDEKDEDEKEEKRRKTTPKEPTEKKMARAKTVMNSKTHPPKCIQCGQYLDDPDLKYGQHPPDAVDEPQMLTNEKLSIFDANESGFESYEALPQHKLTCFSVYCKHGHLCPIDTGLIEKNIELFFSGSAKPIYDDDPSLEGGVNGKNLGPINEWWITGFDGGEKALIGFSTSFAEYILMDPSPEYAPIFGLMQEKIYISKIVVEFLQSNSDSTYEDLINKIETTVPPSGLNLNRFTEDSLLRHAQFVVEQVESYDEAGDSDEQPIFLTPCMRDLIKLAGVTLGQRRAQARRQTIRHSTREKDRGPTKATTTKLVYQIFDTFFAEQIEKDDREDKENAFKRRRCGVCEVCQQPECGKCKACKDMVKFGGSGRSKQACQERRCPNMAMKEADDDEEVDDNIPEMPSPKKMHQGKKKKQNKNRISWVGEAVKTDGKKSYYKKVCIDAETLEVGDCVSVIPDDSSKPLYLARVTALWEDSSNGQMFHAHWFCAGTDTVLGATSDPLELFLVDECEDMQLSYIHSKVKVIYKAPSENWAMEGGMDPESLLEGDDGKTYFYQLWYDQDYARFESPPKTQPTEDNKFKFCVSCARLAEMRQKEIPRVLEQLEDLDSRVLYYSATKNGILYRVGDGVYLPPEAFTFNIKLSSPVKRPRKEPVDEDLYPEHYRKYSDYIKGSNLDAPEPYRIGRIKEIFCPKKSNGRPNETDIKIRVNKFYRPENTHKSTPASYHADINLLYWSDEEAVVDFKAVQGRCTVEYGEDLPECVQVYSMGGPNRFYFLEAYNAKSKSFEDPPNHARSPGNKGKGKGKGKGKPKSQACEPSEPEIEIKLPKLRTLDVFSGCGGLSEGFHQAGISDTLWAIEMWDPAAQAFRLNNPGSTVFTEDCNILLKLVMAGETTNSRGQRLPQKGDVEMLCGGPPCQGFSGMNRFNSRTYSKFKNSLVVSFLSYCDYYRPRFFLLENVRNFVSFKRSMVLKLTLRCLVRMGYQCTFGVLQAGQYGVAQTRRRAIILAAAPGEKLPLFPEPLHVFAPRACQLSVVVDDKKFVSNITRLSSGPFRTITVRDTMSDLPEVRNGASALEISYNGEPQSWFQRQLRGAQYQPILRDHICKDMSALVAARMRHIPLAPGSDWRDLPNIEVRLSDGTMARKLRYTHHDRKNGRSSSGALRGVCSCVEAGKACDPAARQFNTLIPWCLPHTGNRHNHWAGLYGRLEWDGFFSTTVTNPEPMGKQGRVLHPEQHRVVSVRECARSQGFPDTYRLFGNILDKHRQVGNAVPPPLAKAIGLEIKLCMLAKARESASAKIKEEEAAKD
# Salmonella typhimurium [8] = test: Genotoxicity in Salmonella typhimurium TA98 at 50 times IC50 by Ames test; format: toxicity; details: salmonella enterica subsp. enterica serovar typhimurium
# U-937 [9] = test: Induction of apoptosis in human U937 cells assessed as late apoptotic cells at 5 uM after 48 hrs by Annexin V-FITC/PI staining based flow cytometry (reference value: 0.438%); format: functional
# [10] = molecular target: DNMT3B-DNMT3L complex (Homo sapiens) (UniProt Q9UBC3+Q9UJW3); test: Inhibition of DNMT3B/3L (unknown origin) at 100 uM using biotinylated DNA oligonucleotides as substrate preincubated for 15 mins followed by substrate/[3H]-SAM addition measured after 4 hrs by liquid scintillation counting analysis; format: protein-complex assay
# Chain of DNMT3B-DNMT3L complex (Homo sapiens) (Q9UJW3 whole entry, looked up, other chains not shown): as the sequence (Q9UJW3 whole entry, looked up) above
# U-937 [11] = test: Induction of apoptosis in human U937 cells assessed as early apoptotic cells at 5 uM after 48 hrs by Annexin V-FITC/PI staining based flow cytometry (reference value: 0.162%); format: functional
# Homo sapiens [12] = species on record: Homo sapiens; test: Inhibition of HDAC in human U937 cells assessed as induction of histone H3K9 acetylation after 12 hrs by Western blot analysis; format: cell-based
# U-937 [13] = test: Induction of apoptosis in human U937 cells assessed as late apoptotic cells at 2.5 uM after 48 hrs by Annexin V-FITC/PI staining based flow cytometry (reference value: 0.438%); format: functional
# U-937 [14] = test: Induction of apoptosis in human U937 cells assessed as late apoptotic cells at 10 uM after 48 hrs by Annexin V-FITC/PI staining based flow cytometry (reference value: 0.438%); format: functional
# U-937 [15] = test: Induction of apoptosis in human U937 cells assessed as viable cells at 10 uM after 48 hrs by Annexin V-FITC/PI staining based flow cytometry (reference value: 99.4%); format: functional; details: U-937, 48 h, read-out: Activity
# Homo sapiens [16] = species on record: Homo sapiens; test: Inhibition of DNMT in human U937 cells assessed as induction of P16 CpG islands demethylation at 1 to 2.5 uM after 36 hrs by PCR analysis; format: cell-based
# U-937 [17] = test: Induction of apoptosis in human U937 cells assessed as necrotic cells at 5 uM after 48 hrs by Annexin V-FITC/PI staining based flow cytometry (reference value: 0%); format: functional
# Salmonella typhimurium [18] = test: Genotoxicity in Salmonella typhimurium TA97 at 50 times IC50 by Ames test; format: toxicity; details: salmonella enterica subsp. enterica serovar typhimurium
# Histone deacetylase 1 = Histone deacetylase 1 (Homo sapiens, UniProt Q13547); test: Inhibition of HDAC1 (unknown origin) preincubated for 15 mins followed by substrate addition measured after 60 mins by fluorescence assay
# Chain of Histone deacetylase 1 (Q13547 whole entry): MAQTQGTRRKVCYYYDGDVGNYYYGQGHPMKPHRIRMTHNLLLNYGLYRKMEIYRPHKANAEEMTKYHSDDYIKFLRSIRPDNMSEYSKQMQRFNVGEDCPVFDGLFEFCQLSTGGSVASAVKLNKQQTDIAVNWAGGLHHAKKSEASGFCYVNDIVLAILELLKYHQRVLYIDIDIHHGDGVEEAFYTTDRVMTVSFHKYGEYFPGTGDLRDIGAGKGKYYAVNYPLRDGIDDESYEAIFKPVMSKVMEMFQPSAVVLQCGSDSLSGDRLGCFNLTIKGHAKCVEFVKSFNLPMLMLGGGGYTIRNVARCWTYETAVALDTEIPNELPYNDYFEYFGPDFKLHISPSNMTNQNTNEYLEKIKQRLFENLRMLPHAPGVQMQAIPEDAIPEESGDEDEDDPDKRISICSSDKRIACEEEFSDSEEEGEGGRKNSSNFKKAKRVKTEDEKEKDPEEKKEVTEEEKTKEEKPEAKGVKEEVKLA
# U-937 [19] = test: Induction of apoptosis in human U937 cells assessed as early apoptotic cells at 10 uM after 48 hrs by Annexin V-FITC/PI staining based flow cytometry (reference value: 0.162%); format: functional
# U-937 [20] = test: Induction of apoptosis in human U937 cells assessed as increase in cleaved PARP expression at 1 to 5 uM after 36 hrs by Western blot analysis; format: functional, cell-based
# U-937 [21] = test: Induction of apoptosis in human U937 cells assessed as cell death after 48 hrs by Annexin V-FITC/PI staining based flow cytometry; format: functional
# Homo sapiens [22] = species on record: Homo sapiens; test: Inhibition of HDAC in human U937 cells assessed as induction of histone H4K8 acetylation after 12 hrs by Western blot analysis; format: cell-based
# U-937 [23] = test: Induction of apoptosis in human U937 cells assessed as necrotic cells at 10 uM after 48 hrs by Annexin V-FITC/PI staining based flow cytometry (reference value: 0%); format: functional
# U-937 [24] = test: Induction of apoptosis in human U937 cells assessed as increase in cleaved caspase-3 level at 1 to 5 uM after 36 hrs by Western blot analysis; format: functional, cell-based
# [25] = molecular target: T1, Protein deacetylase HDAC6 (Homo sapiens, UniProt Q9UBN7); test: Inhibition of HDAC6 (unknown origin) preincubated for 15 mins followed by substrate addition measured after 60 mins by fluorescence assay
# T1 sequence (Q9UBN7 whole entry): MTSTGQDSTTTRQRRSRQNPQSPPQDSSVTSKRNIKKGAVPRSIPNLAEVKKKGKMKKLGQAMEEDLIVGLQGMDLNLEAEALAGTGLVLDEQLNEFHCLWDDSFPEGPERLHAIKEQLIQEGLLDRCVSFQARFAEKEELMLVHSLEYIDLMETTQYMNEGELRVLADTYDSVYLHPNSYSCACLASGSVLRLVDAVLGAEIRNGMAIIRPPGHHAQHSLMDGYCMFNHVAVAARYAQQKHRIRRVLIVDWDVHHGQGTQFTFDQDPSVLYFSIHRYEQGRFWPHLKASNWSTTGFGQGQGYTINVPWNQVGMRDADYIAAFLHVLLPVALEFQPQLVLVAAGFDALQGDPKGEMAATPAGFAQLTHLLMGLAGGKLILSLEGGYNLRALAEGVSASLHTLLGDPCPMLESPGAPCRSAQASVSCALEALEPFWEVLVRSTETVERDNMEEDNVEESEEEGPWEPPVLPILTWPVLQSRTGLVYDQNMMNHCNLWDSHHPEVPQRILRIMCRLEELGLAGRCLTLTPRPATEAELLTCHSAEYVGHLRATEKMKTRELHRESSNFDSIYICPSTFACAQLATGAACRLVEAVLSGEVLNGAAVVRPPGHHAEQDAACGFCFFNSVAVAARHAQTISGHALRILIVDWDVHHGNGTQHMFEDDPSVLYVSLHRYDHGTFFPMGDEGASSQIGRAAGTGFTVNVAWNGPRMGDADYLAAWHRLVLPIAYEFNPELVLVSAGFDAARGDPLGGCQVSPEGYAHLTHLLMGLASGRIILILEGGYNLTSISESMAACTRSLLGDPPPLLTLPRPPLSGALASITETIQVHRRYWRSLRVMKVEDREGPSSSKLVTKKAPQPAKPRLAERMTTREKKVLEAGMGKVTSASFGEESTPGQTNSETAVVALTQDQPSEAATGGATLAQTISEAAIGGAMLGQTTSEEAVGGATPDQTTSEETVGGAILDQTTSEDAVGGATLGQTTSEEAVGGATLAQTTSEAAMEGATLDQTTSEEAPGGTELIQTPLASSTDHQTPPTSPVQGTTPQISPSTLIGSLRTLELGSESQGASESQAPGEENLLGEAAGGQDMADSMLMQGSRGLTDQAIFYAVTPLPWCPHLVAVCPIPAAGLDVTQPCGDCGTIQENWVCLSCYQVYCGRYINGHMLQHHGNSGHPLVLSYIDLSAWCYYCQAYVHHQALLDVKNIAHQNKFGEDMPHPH
# [26] = molecular target: DNA (cytosine-5)-methyltransferase 1 (Homo sapiens) (UniProt P26358); test: Inhibition of DNMT1 (unknown origin) at 100 uM using poly(dI-dC).poly(dI-dC) as substrate preincubated for 15 mins followed by substrate/[3H]-SAM addition measured after 120 mins by liquid scintillation counting analysis
# Salmonella typhimurium [27] = test: Genotoxicity in Salmonella typhimurium TA1535 at 50 times IC50 by Ames test; format: toxicity; details: salmonella enterica subsp. enterica serovar typhimurium
# U-937 [28] = test: Induction of apoptosis in human U937 cells assessed as increase in PARP expression at 1 to 5 uM after 36 hrs by Western blot analysis; format: functional, cell-based
# Salmonella typhimurium [29] = test: Genotoxicity in Salmonella typhimurium TA102 at 50 times IC50 by Ames test; format: toxicity; details: salmonella enterica subsp. enterica serovar typhimurium
smiles,measurement,setting,value
O=C(/C=C/c1ccc(CCNC(=O)c2cc(C(F)(F)F)ccc2Cl)cc1)NO,IC50,K562,2850 nM
same,viability at 2.5 µM,U-937 [1],56%
same,inhibition,[2],23 to 23.4%
same,viability at 5 µM,U-937 [3],0.725%
same,Activity,U-937 [4],12.9%
same,Activity,U-937 [5],0.452%
same,IC50,U-937 [6],1060 nM
same,inhibition,[7],Active
same,Activity,Salmonella typhimurium [8],Non-Toxic
same,Activity,U-937 [9],50.7%
same,inhibition,[10],48 to 48.5%
same,Activity,U-937 [11],48.2%
same,inhibition,Homo sapiens [12],Dose-dependent effect
same,Activity,U-937 [13],30.7%
same,Activity,U-937 [14],68.3%
same,viability at 10 µM,U-937 [15],0.784%
same,inhibition,Homo sapiens [16],Active
same,Activity,U-937 [17],0.384%
same,Activity,Salmonella typhimurium [18],Non-Toxic
same,IC50,Histone deacetylase 1,56.8 nM
same,Activity,U-937 [19],30.1%
same,Activity,U-937 [20],Active
same,Activity,U-937 [21],Dose-dependent effect
same,inhibition,Homo sapiens [22],Dose-dependent effect
same,Activity,U-937 [23],0.846%
same,Activity,U-937 [24],Active
same,IC50,[25],17.4 nM
same,inhibition,[26],69.9 to 70%
same,Activity,Salmonella typhimurium [27],Non-Toxic
same,Activity,U-937 [28],Active
same,Activity,Salmonella typhimurium [29],Non-Toxic
